US12371454B2, “Cyclic peptide compound having Kras inhibitory action” (priority 2019, dated 2025)
Starred links: 1 amine or outer side, 2 acyl side, 3 side chain; linkers in the order of their positions; H or OH if unused. Positions of bridges follow the written chain, without caps; N, C: chain ends. Non-standard residues stand in square brackets, D forms with d. Residues, ends and D or L forms follow the SMILES beside them. *: point of attachment. hPhe(3-Cl-4-CF3) = N[C@@H](CCc1ccc(C(F)(F)F)c(Cl)c1)C(=O)O; X19 = CC(C)(C)Oc1cc(CC[C@H](N[*:1])C(=O)[*:2])cc(Cl)c1Cl; hPhe(3-F,4-CF3) = N[C@@H](CCc1ccc(C(F)(F)F)c(F)c1)C(=O)O; NMePhe(4-CF3) = CN[C@@H](Cc1ccc(C(F)(F)F)cc1)C(=O)O; NMePhe(4-Me) = CN[C@@H](Cc1ccc(C)cc1)C(=O)O; NMePhe(4-I) = CN[C@@H](Cc1ccc(I)cc1)C(=O)O; Abu(4,4,4-F3) = N[C@@H](CC(F)(F)F)C(=O)O; NMeGly(cPent) = CN[C@H](C(=O)O)C1CCCC1; NMeCha = CN[C@@H](CC1CCCCC1)C(=O)O; NMeChg = CN[C@H](C(=O)O)C1CCCCC1; NMeD = CN[C@@H](CC(=O)O)C(=O)O; NMeHpra = C#CCC[C@H](NC)C(=O)O; NMeL = CN[C@@H](CC(C)C)C(=O)O; NMeV = CN[C@H](C(=O)O)C(C)C; d(β3hA) = C[C@@H](N)CC(=O)O; NMeA = CN[C@@H](C)C(=O)O; Piperidide = C1CCN(*)CC1; Pyrrolidide = C1CCN(*)C1; Ac5c = NC1(C(=O)O)CCCC1; Aze = O=C(O)[C@@H]1CCN1; Aib = CC(C)(N)C(=O)O; Sar = CNCC(=O)O

Legend:
[1] = test system: Human pancreatic cancer cell line AsPC-1; assay: Measurement of AsPC-1 cell growth inhibition (AsPC-1 CGI); assay type: cell-based; details: 96 h
Method in brief: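 AsPC-1 cells in 15% FBS RPMI-1640 were exposed to test compound for 96 hours at 37° C, with CellTiter-Glo as endpoint.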

[2] = target: T1, Kras and SOS1 (biotin-tagged human Kras loaded with GDP, His-tagged human SOS1) (Homo sapiens, UniProt P01116, G12D); assay: Protein-protein interaction inhibition between Kras and SOS1 (KrasGl2D-SOS PPI) using AlphaScreen; assay type: binding; details: AlphaScreen; biotin-tagged human Kras loaded with GDP, His-tagged human SOS1; read-out: KRAS G12D-SOS PPI IC50
T1 construct: made in house; host or cells: E. coli (stated for Kras only)
Method in brief: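 Energy transfer from nickel-chelate donor beads bound to His-SOS1 to streptavidin acceptor beads bound to biotin-Kras, expressed in E. coli and loaded with GDP after purification, was monitored. Donors were excited at 680 nm; singlet oxygen reaching acceptors gave emission read at 520-620 nm.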

T1 sequence (P01116 1-188 isoform P01116-2 G12D): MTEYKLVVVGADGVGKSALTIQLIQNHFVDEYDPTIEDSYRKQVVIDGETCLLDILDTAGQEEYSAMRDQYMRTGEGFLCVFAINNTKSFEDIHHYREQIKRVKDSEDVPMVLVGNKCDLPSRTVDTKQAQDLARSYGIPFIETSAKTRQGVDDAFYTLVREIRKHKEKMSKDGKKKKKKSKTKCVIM

Compound	IC50 [1]	IC50 [2]
CC[C@H](C)[C@@H]1NC(=O)[C@H](C)N(C)C(=O)C[C@@H](C(=O)N2CCCCC2)N(C)C(=O)[C@H](C(C)C)N(C)C(=O)C2(CCCC2)NC(=O)[C@@H]2CCCN2C(=O)[C@H](CCc2cc(Cl)c(Cl)c(OC(C)(C)C)c2)NC(=O)CN(C)C(=O)[C@H](CC2CCCCC2)N(C)C(=O)CN(C)C(=O)CN(C)C1=O [Compound 2073] ([NMeA]I[Sar][Sar][NMeCha][Sar][X19]P[Ac5c][NMeV][NMeD]-Piperidide; lactam N-11)	> 500 nM	12 nM
CC(C)C[C@H]1C(=O)N[C@@H](CC(F)(F)F)C(=O)N(C)CC(=O)N(C)CC(=O)N(C)[C@@H](CC2CCCCC2)C(=O)N(C)CC(=O)N[C@@H](CCc2ccc(C(F)(F)F)c(Cl)c2)C(=O)N2CCC[C@H]2C(=O)NC2(CCCC2)C(=O)N(C)[C@@H](C2CCCCC2)C(=O)N(C)[C@H](C(=O)N2CCCCC2)CC(=O)N1C [Compound 1744] ([NMeL][Abu(4,4,4-F3)][Sar][Sar][NMeCha][Sar][hPhe(3-Cl-4-CF3)]P[Ac5c][NMeChg][NMeD]-Piperidide; lactam N-11)	100 to 500 nM	4 nM
C#CCC[C@H]1C(=O)N[C@@H]([C@@H](C)CC)C(=O)N(C)CC(=O)N(C)CC(=O)N(C)[C@@H](Cc2ccc(I)cc2)C(=O)N(C)CC(=O)N[C@@H](CCc2ccc(C(F)(F)F)c(Cl)c2)C(=O)N2CCC[C@H]2C(=O)NC2(CCCC2)C(=O)N(C)[C@@H](C2CCCCC2)C(=O)N[C@H](C)CC(=O)N1C [Compound 300] (cyclo([Ac5c][NMeChg][d(β3hA)][NMeHpra]I[Sar][Sar][NMePhe(4-I)][Sar][hPhe(3-Cl-4-CF3)]P))	100 to 500 nM	9.5 nM
CC[C@H](C)[C@@H]1NC(=O)[C@H](CC(C)C)N(C)C(=O)C[C@@H](C(=O)N(C)C)N(C)C(=O)[C@H](C(C)C)N(C)C(=O)C2(CCCC2)NC(=O)[C@@H]2CCCN2C(=O)[C@H](CCc2ccc(C(F)(F)F)c(Cl)c2)NC(=O)CN(C)C(=O)[C@H](CC2CCCCC2)N(C)C(=O)[C@@H]2CCN2C(=O)[C@H](C)N(C)C1=O [Compound 1728] ([NMeL]I[NMeA][Aze][NMeCha][Sar][hPhe(3-Cl-4-CF3)]P[Ac5c][NMeV][NMeD]-NMe2; lactam N-11)	50 to 100 nM	1.2 nM
CC[C@H](C)[C@@H]1NC(=O)[C@H](CC(C)C)N(C)C(=O)C[C@@H](C)NC(=O)[C@H](C2CCCC2)N(C)C(=O)C(C)(C)NC(=O)[C@@H]2CCCN2C(=O)[C@H](CCc2ccc(C(F)(F)F)c(Cl)c2)NC(=O)CN(C)C(=O)[C@H](Cc2ccc(C)cc2)N(C)C(=O)[C@@H]2CCN2C(=O)[C@H](C)N(C)C1=O [Compound 354] (cyclo([Aib][NMeGly(cPent)][d(β3hA)][NMeL]I[NMeA][Aze][NMePhe(4-Me)][Sar][hPhe(3-Cl-4-CF3)]P))	100 to 500 nM	1.6 nM
CC[C@H](C)[C@@H]1NC(=O)[C@H](CC(C)C)N(C)C(=O)C[C@@H](C(=O)N2CCCC2)N(C)C(=O)[C@H](C(C)C)N(C)C(=O)C2(CCCC2)NC(=O)[C@@H]2CCCN2C(=O)[C@H](CCc2ccc(C(F)(F)F)c(Cl)c2)NC(=O)CN(C)C(=O)[C@H](CC2CCCCC2)N(C)C(=O)CN(C)C(=O)CN(C)C1=O [Compound 1711] ([NMeL]I[Sar][Sar][NMeCha][Sar][hPhe(3-Cl-4-CF3)]P[Ac5c][NMeV][NMeD]-Pyrrolidide; lactam N-11)	100 to 500 nM	0.78 nM
CC[C@H](C)[C@@H]1NC(=O)[C@H](CC(C)C)N(C)C(=O)C[C@@H](C)NC(=O)[C@H](C(C)C)N(C)C(=O)C2(CCCC2)NC(=O)[C@@H]2CCCN2C(=O)[C@H](CCc2ccc(C(F)(F)F)c(F)c2)NC(=O)CN(C)C(=O)[C@H](CC2CCCCC2)N(C)C(=O)[C@@H]2CCN2C(=O)CN(C)C1=O [Compound 211] (cyclo([Ac5c][NMeV][d(β3hA)][NMeL]I[Sar][Aze][NMeCha][Sar][hPhe(3-F,4-CF3)]P))	100 to 500 nM	43 nM
CC[C@H](C)[C@@H]1NC(=O)[C@H](CC(C)C)N(C)C(=O)C[C@@H](C(=O)N2CCCC2)N(C)C(=O)[C@H](C2CCCCC2)N(C)C(=O)C2(CCCC2)NC(=O)[C@@H]2CCCN2C(=O)[C@H](CCc2ccc(C(F)(F)F)c(Cl)c2)NC(=O)CN(C)C(=O)[C@H](Cc2ccc(C(F)(F)F)cc2)N(C)C(=O)CN(C)C(=O)CN(C)C1=O [Compound 1978] ([NMeL]I[Sar][Sar][NMePhe(4-CF3)][Sar][hPhe(3-Cl-4-CF3)]P[Ac5c][NMeChg][NMeD]-Pyrrolidide; lactam N-11)	20 to 50 nM	0.51 nM
